Results as given in US20230167073A1 (Teijin Pharma Limited, priority 2020, published 2023).

Molecular target: T1, Human TRPC6 (Homo sapiens, UniProt Q9Y210)
T1 construct: expressed in transfected cells
T1 sequence (Q9Y210 1-931): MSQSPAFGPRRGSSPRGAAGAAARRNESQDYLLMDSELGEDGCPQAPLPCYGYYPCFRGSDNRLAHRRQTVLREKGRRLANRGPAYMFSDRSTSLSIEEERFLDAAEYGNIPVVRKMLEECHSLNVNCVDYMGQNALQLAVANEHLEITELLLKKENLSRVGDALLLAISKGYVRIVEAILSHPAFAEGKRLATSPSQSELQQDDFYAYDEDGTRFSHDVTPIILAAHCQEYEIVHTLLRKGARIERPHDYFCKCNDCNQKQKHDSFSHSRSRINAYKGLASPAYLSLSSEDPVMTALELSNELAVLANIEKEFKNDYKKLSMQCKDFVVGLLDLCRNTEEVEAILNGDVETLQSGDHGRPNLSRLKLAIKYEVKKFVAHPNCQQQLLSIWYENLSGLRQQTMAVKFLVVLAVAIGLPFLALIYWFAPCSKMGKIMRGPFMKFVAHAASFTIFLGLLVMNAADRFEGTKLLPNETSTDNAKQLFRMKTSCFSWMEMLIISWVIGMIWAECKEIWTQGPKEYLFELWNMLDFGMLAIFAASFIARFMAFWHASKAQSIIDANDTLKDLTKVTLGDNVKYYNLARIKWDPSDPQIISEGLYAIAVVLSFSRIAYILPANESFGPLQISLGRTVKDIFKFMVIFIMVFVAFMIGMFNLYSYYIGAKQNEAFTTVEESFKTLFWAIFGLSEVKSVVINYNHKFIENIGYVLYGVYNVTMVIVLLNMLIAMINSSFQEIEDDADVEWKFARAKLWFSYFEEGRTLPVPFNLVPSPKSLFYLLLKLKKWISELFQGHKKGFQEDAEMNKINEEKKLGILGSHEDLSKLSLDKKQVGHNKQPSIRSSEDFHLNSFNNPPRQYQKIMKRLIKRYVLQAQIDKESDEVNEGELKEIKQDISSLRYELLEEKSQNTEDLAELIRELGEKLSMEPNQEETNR
Assay: Evaluation of TRPC6 channel inhibitory activity (1), FLIPR Calcium 5 Assay Kit, OAG stimulation (Compound Nos. 1-1293)
Format: cell-based
Details: Human TRPC6 stably-expressing cells, OAG 30 μM, FLIPR Calcium 5 Assay Kit; read-out: Inhibitory activity (pIC50 class) (converted)
Method in brief: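 TRPC6 (human) stable cells, 24 h culture; Ca5 no-wash dye + probenecid 30 min; cpd 20 min; OAG 30 μM final; ΔF (pre-cpd min to post-OAG max); 0%/100% = no cpd / no cpd + no OAG; 4PL → pIC50, binned +/++/+++.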

| SMILES | IC50 |
| --- | --- |
| Cn1nc(-c2cccnc2)cc1Oc1cc(C#N)ccc1-c1ccc(CCN)cc1 [Compound 163, 4-[4-(2-aminoethyl)phenyl]-3-(2-methyl-5-pyridin-3-ylpyrazol-3-yl)oxybenzonitrile] | 10 to 1000 nM |
| CC(C)n1nc(C2CC2)cc1Oc1cc(C#N)ccc1-c1ncc([C@H](O)CN)cn1 [compound 408, 4-[5-[(1S)-2-amino-1-hydroxyethyl]pyrimidin-2-yl]-3-(5-cyclopropyl-2-propan-2-ylpyrazol-3-yl)oxybenzonitrile] | 10 to 1000 nM |
| Cn1nc(-c2ccccn2)cc1Cc1cc(C#N)ccc1-c1ccc(CCN)cn1 [compound 1215, 4-[5-(2-aminoethyl)pyridin-2-yl]-3-[(2-methyl-5-pyridin-2-ylpyrazol-3-yl)methyl]benzonitrile] | < 10 nM |
| CCc1cc(Oc2cc(C#N)ccc2-c2ncc(CCN)cn2)n(C)n1 [Compound 293, 4-[5-(2-aminoethyl)pyrimidin-2-yl]-3-(5-ethyl-2-methylpyrazol-3-yl)oxybenzonitrile] | < 10 nM |
| Cc1nc(N2CCOCC2)sc1C(=O)c1cc(C#N)ccc1-c1ncc(CN)cn1 [Compound No. 1064, 4-[5-(Aminomethyl)pyrimidin-2-yl]-3-(4-methyl-2-morpholin-4-yl-1,3-thiazole-5-carbonyl)benzonitrile] | 10 to 1000 nM |
| Cc1cc(Oc2cc(C#N)ccc2-c2ccc(C3(F)CNC3)cn2)cc(N2CCOCC2)n1 [compound 538, 4-[5-(3-fluoroazetidin-3-yl)pyridin-2-yl]-3-(2-methyl-6-morpholin-4-ylpyridin-4-yl)oxybenzonitrile] | 10 to 1000 nM |
| Cc1cc(Oc2cc(C#N)ccc2-c2ncc(CCN)cn2)cc(N2CCOC[C@@H]2C)n1 [compound 471, 4-[5-(2-aminoethyl)pyrimidin-2-yl]-3-[2-methyl-6-[(3S)-3-methylmorpholin-4-yl]pyridin-4-yl]oxybenzonitrile] | < 10 nM |
| COCCN(C)c1cc(Oc2cc(C#N)ccc2-c2ncc(CCN)cn2)n(C)n1 [compound 760, 4-[5-(2-aminoethyl)pyrimidin-2-yl]-3-[5-[2-methoxyethyl(methyl)amino]-2-methylpyrazol-3-yl]oxybenzonitrile] | < 10 nM |
| Cc1c(Oc2cc(C#N)ccc2-c2ncc(CN)cn2)cnn1CC(C)C [compound 805, 4-[5-(aminomethyl)pyrimidin-2-yl]-3-[5-methyl-1-(2-methylpropyl)pyrazol-4-yl]oxybenzonitrile] | 10 to 1000 nM |
| Cc1nc(Oc2cc(C#N)ccc2-n2cc([C@@H](O)CN)cn2)cc(N2CCC(F)(F)C2)n1 [Compound 252, 4-[4-[(1R)-2-amino-1-hydroxyethyl]pyrazol-1-yl]-3-[6-(3,3-difluoropyrrolidin-1-yl)-2-methylpyrimidin-4-yl]oxybenzonitrile] | > 1000 nM |
| Cc1nn(CC(C)C)cc1Cc1cc(F)ccc1-c1ncc(CN)cn1 [compound 1225, [2-[4-fluoro-2-[[3-methyl-1-(2-methylpropyl)pyrazol-4-yl]methyl]phenyl]pyrimidin-5-yl]methanamine] | 10 to 1000 nM |
| Cc1cc(Oc2cc(C#N)ccc2-c2ncc(CCN)cn2)cc(C2CC2)n1 [compound 315, 4-[5-(2-aminoethyl)pyrimidin-2-yl]-3-(2-cyclopropyl-6-methylpyridin-4-yl)oxybenzonitrile] | < 10 nM |
| Cc1nc(Oc2cc(C#N)ccc2-c2ccc(CCN)cc2)cc(-c2ccccc2C(F)(F)F)n1 [Compound 23, 4-[4-(2-aminoethyl)phenyl]-3-[2-methyl-6-[2-(trifluoromethyl)phenyl]pyrimidin-4-yl]oxybenzonitrile] | 10 to 1000 nM |
| CN(C)CCOc1ccc(-c2ccc(C#N)cc2Oc2cc(C3CC3)nn2C)nn1 [compound 784, 3-(5-cyclopropyl-2-methylpyrazol-3-yl)oxy-4-[6-[2-(dimethylamino)ethoxy]pyridazin-3-yl]benzonitrile] | > 1000 nM |
| Cc1nc(Sc2cc(C#N)ccc2-n2cc(CCN)cn2)cc(N2CCCCC2)n1 [compound 1252, 4-[4-(2-aminoethyl)pyrazol-1-yl]-3-(2-methyl-6-piperidin-1-ylpyrimidin-4-yl)sulfanylbenzonitrile] | 10 to 1000 nM |
| COc1ccccc1-c1cc(Oc2cc(C#N)ccc2-c2ccc(C(O)CN)cn2)n(C)n1 (stereo not shown) [compound 320, 4-[5-(2-amino-1-hydroxyethyl)pyridin-2-yl]-3-[5-(2-methoxyphenyl)-2-methylpyrazol-3-yl]oxybenzonitrile] | < 10 nM |
| Cn1nc(-c2ccccc2)cc1Oc1cc(C#N)ccc1-c1ccc(CCN)nc1 [Compound 174, 4-[6-(2-aminoethyl)pyridin-3-yl]-3-(2-methyl-5-phenylpyrazol-3-yl)oxybenzonitrile] | < 10 nM |
| N#Cc1ccc(-c2ncc(CCN)cn2)c(Oc2cnnc(N3CCCCC3)c2)c1 [compound 619, 4-[5-(2-aminoethyl)pyrimidin-2-yl]-3-(6-piperidin-1-ylpyridazin-4-yl)oxybenzonitrile] | < 10 nM |
| N#Cc1ccc(-n2cc(CCN)cn2)c(Sc2cnnc(N3CCCC3)c2)c1 [compound 1247, 4-[4-(2-aminoethyl)pyrazol-1-yl]-3-(6-pyrrolidin-1-ylpyridazin-4-yl)sulfanylbenzonitrile] | 10 to 1000 nM |

Next, values leading:

| IC50 | SMILES |
| --- | --- |
| 10 to 1000 nM | Cn1nc(C2CC2)cc1Oc1cc(C#N)ccc1-c1ccc(CN)c(C(=O)O)n1 [compound 618, 3-(aminomethyl)-6-[4-cyano-2-(5-cyclopropyl-2-methylpyrazol-3-yl)oxyphenyl]pyridine-2-carboxylic acid] |
| 10 to 1000 nM | N#Cc1ccc(-c2ncc(CN)cn2)c(Sc2cnnc(N3CCCCC3)c2)c1 [compound 1268, 4-[5-(aminomethyl)pyrimidin-2-yl]-3-(6-piperidin-1-ylpyridazin-4-yl)sulfanylbenzonitrile] |
| < 10 nM | CC(C)c1cc(Oc2cc(F)ccc2-c2ncc(CCN)cn2)n(C)n1 [compound 1013, 2-[2-[4-fluoro-2-(2-methyl-5-propan-2-ylpyrazol-3-yl)oxyphenyl]pyrimidin-5-yl]ethanamine] |
| 10 to 1000 nM | COC(C)c1cn(Cc2cc(C#N)ccc2-c2ncc(CCN)cn2)c(C)n1 (stereo not shown) [compound 1141, 4-[5-(2-aminoethyl)pyrimidin-2-yl]-3-[[4-(1-methoxyethyl)-2-methylimidazol-1-yl]methyl]benzonitrile] |
| < 10 nM | Cn1nc(C(C)(C)C)cc1Oc1cc(C#N)ccc1-c1ccc(C(N)CO)cn1 (stereo not shown) [compound 413, 4-[5-(1-amino-2-hydroxyethyl)pyridin-2-yl]-3-(5-tert-butyl-2-methylpyrazol-3-yl)oxybenzonitrile] |
| < 10 nM | CC(C)n1nc(-c2ccccc2)cc1Oc1cc(C#N)ccc1-c1ncc(CCN)cn1 [compound 381, 4-[5-(2-aminoethyl)pyrimidin-2-yl]-3-(5-phenyl-2-propan-2-ylpyrazol-3-yl)oxybenzonitrile] |
| < 10 nM | CC(C)n1nc(C2CC2)cc1Oc1cc(C#N)ccc1-c1ccc([C@H](O)CN)cn1 [compound 407, 4-[5-[(1S)-2-amino-1-hydroxyethyl]pyridin-2-yl]-3-(5-cyclopropyl-2-propan-2-ylpyrazol-3-yl)oxybenzonitrile] |
| 10 to 1000 nM | Cn1nc(C2CCC2)cc1Oc1cc(C#N)ccc1-c1ccc(C(O)CNCC#N)cn1 (stereo not shown) [Compound 280, 4-[5-[2-(cyanomethylamino)-1-hydroxyethyl]pyridin-2-yl]-3-(5-cyclobutyl-2-methylpyrazol-3-yl)oxybenzonitrile] |
| < 10 nM | Cc1cc(Oc2cc(C#N)ccc2-c2ncc(CCN)cn2)cc(N2CCO[C@@H](C(F)F)C2)n1 [compound 444, 4-[5-(2-aminoethyl)pyrimidin-2-yl]-3-[2-[(2R)-2-(difluoromethyl)morpholin-4-yl]-6-methylpyridin-4-yl]oxybenzonitrile] |
| < 10 nM | Cc1nc(Oc2cc(C#N)ccc2-c2ncc(CCN)cn2)cc(N(C)CC2CC2)n1 [compound 861, 4-[5-(2-aminoethyl)pyrimidin-2-yl]-3-[6-[cyclopropylmethyl(methyl)amino]-2-methylpyrimidin-4-yl]oxybenzonitrile] |
| 10 to 1000 nM | N#Cc1ccc(-c2ncc(CN)cn2)c(Cn2cc(C3CCCCC3)nn2)c1 [compound 1190, 4-[5-(aminomethyl)pyrimidin-2-yl]-3-[(4-cyclohexyltriazol-1-yl)methyl]benzonitrile] |
| 10 to 1000 nM | Cc1nnc(N2CCOCC2)cc1Oc1cc(C#N)ccc1-c1ncc(CN)cn1 [compound 825, 4-[5-(aminomethyl)pyrimidin-2-yl]-3-(3-methyl-6-morpholin-4-ylpyridazin-4-yl)oxybenzonitrile] |
